Values after ≈ are worked out from the molar mass of the structure shown. Where two headings read alike, the source gives them in different places.
Tests used:
B. subtilis [1] = assay: Minimum bactericidal concentration (MBC); format: cell-based; settings: for MBC: Bacillus subtilis
S. aureus [2] = assay: MIC by tube dilution method; format: cell-based; settings: 24 h at 37 °C
S. aureus [3] = assay: Minimum bactericidal concentration (MBC); format: cell-based; settings: for MBC: Staphylococcus aureus
S. enterica [4] = assay: Minimum bactericidal concentration (MBC); format: cell-based; settings: Salmonella enterica, read-out: MBC/MFC
Procedure: After MIC assessment, the indole derivatives (DS1–DS21), were additionally evaluated for MBC and MFC values. […] The 10–15 ml of nutrient agar and Sabouraud dextrose agar was added to the petri plates for bacterial and fungal samples respectively with gentle shaking of plates in order to mix the culture throughout the media. Allowed the media to solidify. The petri plates were then incubated for the predefined time and temperature as referenced already for bacterial and fungal cultures respectively. The plates were then investigated visually for the development of microbial growth. The MBC and MFC were stated as the minimum concentration of the compounds in aliquots showing no visual growth after incubation.

B. subtilis [5] = assay: MIC by tube dilution method; format: cell-based; settings: 24 h at 37 °C
E. coli [6] = assay: Minimum bactericidal concentration (MBC); format: cell-based; settings: for MBC: Escherichia coli
E. coli [7] = assay: MIC by tube dilution method; format: cell-based; settings: 24 h at 37 °C
K. pneumonia [8] = assay: MIC by tube dilution method; format: cell-based; settings: Klebsiella pneumoniae, 24 h, 24 h at 37 °C, read-out: MIC
S. enterica [9] = assay: MIC by tube dilution method; format: cell-based; settings: 24 h at 37 °C
K. pneumonia [10] = assay: Minimum bactericidal concentration (MBC); format: cell-based; settings: for MBC: Klebsiella pneumoniae
A. niger [11] = assay: Minimum fungicidal concentration (MFC); format: cell-based; settings: for MFC: Aspergillus niger, read-out: MBC/MFC
A. niger [12] = assay: MIC by tube dilution method; format: cell-based; settings: 7 days at 25 °C
A. fumigatus [13] = assay: MIC by tube dilution method; format: cell-based; settings: 7 days at 25 °C
A. fumigatus [14] = assay: Minimum fungicidal concentration (MFC); format: cell-based; settings: for MFC: Aspergillus fumigatus, read-out: MBC/MFC
HCT 116 = assay: MTT cell proliferation assay; format: cell-based; settings: Homo sapiens, HCT-116, 48 h, HCT 116 colon cancer, 48 h of drug treatment
Procedure: (§1) The cell lines used in study were initially procured from the National Centre for Cell Sciences (NCCS), Pune, India, and maintained in DMEM. The cell line was cultured in 25 cm^2 tissue culture flask with DMEM supplemented with 10% FBS, sodium bicarbonate, L-glutamine, and antibiotic solution containing: streptomycin (100 μg/ml), penicillin (100 U/ml). Cultured cell line was kept at 37 °C in a humidified 5% CO2 incubator (VWR, USA).
(§2) The compounds found to have good antimicrobial potential were then screened for their cytotoxicity using MTT […]) assay. 1 × 10^4 cells/well were seeded in 100 µl DMEM/MEM, supplemented with 10% FBS in each well of 96-well microculture plates and incubated for 24 h at 37 °C in a CO2 incubator. After incubation, all the prepared/synthesized compounds were added to the cells at 10, 25, 50 and 100 µg concentrations for 48 h. After 48 h of drug treatment, 10 µl MTT (5 mg/ml) was added to each well and the plates were further incubated for 4 h. Then the supernatant from each well was carefully removed, formazan crystals were dissolved in 100 µl of DMSO and absorbance at 570 nm wavelength was recorded on an ELISA reader. The IC50 value was calculated using the linear regression equation i.e. Y = Mx + C. Here, Y = 50, M and C values were derived from the viability graph. The assay was performed in triplicate.

K562 = assay: MTT cell proliferation assay; format: cell-based; settings: Homo sapiens, K562 leukemia, 48 h of drug treatment
Procedure: as §1, §2

MDA MB 231 = assay: MTT cell proliferation assay; format: cell-based; settings: MDA MB 231 breast cancer, 48 h of drug treatment
Procedure: as §1, §2

[15] = Staphylococcus aureus, read-out: MIC
[16] = Bacillus subtilis, read-out: MIC
[17] = Escherichia coli, 24 h, read-out: MIC
[18] = Salmonella enterica, 24 h, read-out: MIC
[19] = Aspergillus niger, 168 h, read-out: MIC
[20] = Aspergillus fumigatus, 168 h, read-out: MIC

Row | Compound | MBC (B. subtilis [1]) [µg/mL] | MIC (S. aureus [2]; [15]) [µg/mL] | MBC (S. aureus [3]) [µg/mL] | MBC (S. enterica [4]; S. enterica, MBC) [µg/mL] | MIC (B. subtilis [5]; [16]) [µg/mL] | MBC (E. coli [6]) [µg/mL] | MIC (E. coli [7]; [17]) [µg/mL] | MIC (K. pneumonia [8]) [µg/mL] | MIC (S. enterica [9]; [18]) [µg/mL] | MBC (K. pneumonia [10]) [µg/mL] | MFC (A. niger [11]) [µg/mL] | MIC (A. niger [12]; [19]) [µg/mL] | MIC (A. fumigatus [13]; [20]) [µg/mL] | MFC (A. fumigatus [14]) [µg/mL] | other results
1 | O=C(O)c1cn(C2CC2)c2cc(N3CCNCC3)c(F)cc2c1=O [CPR, ciprofloxacin, reference compound] | 31.2 (≈ 94.3 µM) | 1.95 (≈ 5.89 µM) | 62.5 (≈ 189 µM) | 31.2 (≈ 94.3 µM) | 7.81 (≈ 23.6 µM) | 31.2 (≈ 94.3 µM) | 3.9 (≈ 11.8 µM) | 7.81 (≈ 23.6 µM) | 15.6 (≈ 47.1 µM) | 7.81 (≈ 23.6 µM) | – | – | – | – | –
2 | CCc1nnc(/N=C(/C)c2ccc(/N=N\c3c[nH]c4ccccc34)cc2)s1 [DS-7, (Z)-N-(1-(4-((Z)-(1H-Indol-3-yl)diazenyl)phenyl)ethylidene)-5-ethyl-1,3,4-thiadiazol-2-amine] | 125 (≈ 334 µM) | 62.5 (≈ 167 µM) | 125 (≈ 334 µM) | – | 125 (≈ 334 µM) | 31.2 (≈ 83.5 µM) | 7.81 (≈ 20.9 µM) | 3.9 (≈ 10.4 µM) | 31.2 (≈ 83.5 µM) | 16.2 (≈ 43.4 µM) | 125 (≈ 334 µM) | 62.5 (≈ 167 µM) | 62.5 (≈ 167 µM) | 125 (≈ 334 µM) | melting point: 145 to 150 °C; MBC (S. enterica [4]): 31.2 µg/mL (≈ 83.5 µM)
3 | CO/N=C(\C(=O)N[C@@H]1C(=O)N2C(C(=O)O)=C(COC(C)=O)CS[C@H]12)c1csc(N)n1 [CFT, cefotaxime, reference compound] | 15.6 (≈ 34.3 µM) | 15.6 (≈ 34.3 µM) | 31.2 (≈ 68.6 µM) | 31.2 (≈ 68.6 µM) | 15.6 (≈ 34.3 µM) | 15.6 (≈ 34.3 µM) | 1.95 (≈ 4.28 µM) | 1.95 (≈ 4.28 µM) | 15.6 (≈ 34.3 µM) | 3.9 (≈ 8.56 µM) | – | – | – | – | –
4 | COc1cccc2c1C(=O)c1c(O)c3c(c(O)c1C2=O)C[C@@](O)(C(=O)CO)C[C@@H]3O[C@H]1C[C@H](N)[C@H](O)[C@H](C)O1 [DOX, doxorubicin, reference compound] | – | – | – | – | – | – | – | – | – | – | – | – | – | – | IC50 (HCT 116): 3.37 ± 0.37 µg/mL (≈ 6.2 µM); IC50 (K562): 2.62 ± 0.65 µg/mL (≈ 4.82 µM); IC50 (MDA MB 231; Homo sapiens, MDA-MB-231, 48 h, read-out: IC50): 3 µg/mL (≈ 5.52 µM); IC50 (MDA MB 231): 3.08 ± 0.95 µg/mL (≈ 5.67 µM)
5 | C/C(=N/c1ccc(Cl)cc1[N+](=O)[O-])c1ccc(/N=N\c2c[nH]c3ccccc23)cc1 [DS-13, (Z)-N-(1-(4-((Z)-(1H-Indol-3-yl)diazenyl)phenyl)ethylidene)-4-chloro-2-nitroaniline] | 125 (≈ 299 µM) | 62.5 (≈ 150 µM) | 62.5 (≈ 150 µM) | – | 62.5 (≈ 150 µM) | 3.9 to 7.81 (≈ 9.33 to 18.7 µM) | 7.81 (≈ 18.7 µM) | 3.9 (≈ 9.33 µM) | 62.5 (≈ 150 µM) | 15.6 (≈ 37.4 µM) | 125 (≈ 299 µM) | 62.5 (≈ 150 µM) | 31.2 (≈ 74.8 µM) | 125 (≈ 299 µM) | MBC (S. enterica [4]): 62.5 µg/mL (≈ 150 µM)
6 | C/C(=N/c1ccc(S(=O)(=O)Nc2ncccn2)cc1)c1ccc(/N=N\c2c[nH]c3ccccc23)cc1 [DS-19, 4-((Z)-(1-(4-((Z)-(1H-Indol-3-yl)diazenyl)phenyl)ethylidene)amino)-N-(pyrimidin-2-yl) benzenesulfonamide] | – | – | – | – | – | – | – | – | – | – | – | – | – | – | MBC/MFC (B. subtilis [1]): 125 µg/mL (≈ 252 µM); MIC (S. aureus [2]): 31.25 µg/mL (≈ 63.1 µM); MBC/MFC (S. aureus [3]): 31.25 µg/mL (≈ 63.1 µM); MIC (B. subtilis [5]): 31.25 µg/mL (≈ 63.1 µM); MBC/MFC (A. niger [11]): 125 µg/mL (≈ 252 µM); MBC/MFC (E. coli [6]): 62.5 µg/mL (≈ 126 µM); MIC (E. coli [7]): 7.81 µg/mL (≈ 15.8 µM); MIC (A. niger [12]): 31.25 µg/mL (≈ 63.1 µM); MIC (S. enterica [9]): 62.5 µg/mL (≈ 126 µM); MIC (A. fumigatus [13]): 31.25 µg/mL (≈ 63.1 µM); MBC/MFC (A. fumigatus [14]): 125 µg/mL (≈ 252 µM); MBC/MFC (K. pneumonia [10]): 15.62 µg/mL (≈ 31.5 µM)
7 | C/C(=N/c1nnc(-c2ccc([N+](=O)[O-])cc2)s1)c1ccc(/N=N\c2c[nH]c3ccc([N+](=O)[O-])cc23)cc1 [DS-5, (Z)-N-(1-(4-((Z)-(5-Nitro-1H-indol-3-yl)diazenyl)phenyl)ethylidene)-5-(4-nitrophenyl)-1,3,4-thiadiazol-2-amine] | 125 (≈ 244 µM) | 125 (≈ 244 µM) | 125 (≈ 244 µM) | 62.5 (≈ 122 µM) | 62.5 (≈ 122 µM) | 31.2 (≈ 61 µM) | 1.95 (≈ 3.8 µM) | 3.9 (≈ 7.61 µM) | 31.2 (≈ 61 µM) | 15.6 (≈ 30.5 µM) | 125 (≈ 244 µM) | 62.5 (≈ 122 µM) | 125 (≈ 244 µM) | 125 (≈ 244 µM) | melting point: 160 to 165 °C
